# Measured values published in article doi:10.1101/2024.02.22.581678v1 (biorxiv, 2024).
# Target: MeAmi_SBP
# Assay: isothermal analysis of ligand-titrated DSF
# Assay type: binding, Mesorhizobium sp.
# Settings: 50 mM Tris, 300 mM NaCl, pH 7.4; 8.4 μM His6-tagged protein; one-site model
row,Kd,Structure (SMILES)
1,49.7 µM,NCC(N)=O [glycinamide]
2,1.53 µM,C[C@H](N)C(N)=O [L-alaninamide]
3,0.187 µM,NC(=O)[C@@H](N)Cc1ccc(O)cc1 [L-tyrosinamide]
